Experimental data as given in patent US6310091A, “Fungicidal saponin, CAY-1, and isolation thereof from Capsium species fruit” (The United States of America as represented by the …, priority 2000, dated 2001).
Where “and” joins values, the source holds several entries; their conditions need not be identical. Identical values can stand only once. Like-named read-outs stand apart in the source and are kept apart here.

Tests used:
Assay type in all cases: cell-based
[1] = system: Enterobacter agglomerans ATCC 27996; experiment: Bacterial lethality; conditions: 0.5-10 μM; 37° C., 24 hrs
Procedure: (§1) 5. Bacteria. CAY-1 lethality to Escherichia coli ATCC 8739, Enterobacter agglomerans ATCC 27996, Bacillus subtilis ATCC 6051 and Staphylococcus aureus ATCC 12600 was determined by methods described earlier (De Lucca et al., Mol. cell Biochem., 1995, 151:141-148). Briefly, 24 hr bacterial cultures were washed and resuspended in 0.1 M PBS, pH 7.2, amended with 0.15 mM MgCl2 and 0.5 mM CaCl2 and adjusted to 80% transmittance (approximately 10^8 cells/ml) at 590 nm. Bacterial suspensions were mixed with PBS and CAY-1 (final concentrations: 0, 0.5, 1, 2, 4, 8, 10 μM) in sterile 96-well plates (Nunc, Roskilde, Denmark) and incubated (37° C., 24 hrs). Bioassays were performed twice for each bacteria (n=8).

[2] = system: Staphylococcus aureus ATCC 12600; experiment: Bacterial lethality; conditions: 0.5-10 μM; 37° C., 24 hrs
Procedure: as §1

[3] = system: Aspergillus fumigatus; experiment: Fungicidal bioassay on nongerminated and germinating conidia of A. fumigatus; conditions: for activity at 2 µM / activity at 3 µM / activity at 4 µM / activity at 5 µM / activity at 7.5 µM / activity at 10 µM / activity at 0.5 µM / activity at 1 µM / activity at 1.5 µM / activity at 2.5 µM: read-out: Percent of Mean Control
Procedure: 1. Filamentous fungi. Filamentous fungi used in bioassays included Aspergillus flavus, A. fumigatus, A. niger, A. parasiticus and Fusarium oxysporum. The fungicidal properties of CAY-1 for the nongerminated and germinating conidia of these fungi were determined separately as described by De Lucca et al. [Med. Mycol., 36:291-298 (1998)] and De Lucca et al. [Antimicrob. Agents Chemother. 43:371-373 (1999)]. […] Two separate experiments were conducted in each medium (n=8 per medium).
A suspension of the aforementioned fungi were prepared separately in the appropriate medium. Conidia (10^4 conidia/ml) were used immediately for the nongerminated conidial assays while conidia (10^5 conidia/ml) were incubated for 7.5 hours at 30° C. to obtain germinating conidia. Serial dilutions of CAY-1 were prepared in the appropriate medium (totaling 225 μl) to which was added 25 μl of the conidial suspensions. The control consisted of 225 μl of medium and 25 μl of the conidial suspension. After mixing, the samples were incubated for 30 min (30° C.). Samples were then spread on potato dextrose agar plates which were incubated at 30° C. for 24 hours. Colonies were then enumerated.
Statistical analyses. ANOVA analyses on ranks for nonparametric data were performed for the bioassays described in this example.

[4] = Aspergillus fumigatus, 0.5 h, read-out: LD95

## CC1CCC2(OC1)OC1CC3C4CCC5CC(OC6OC(CO)C(OC7OC(CO)C(O)C(OC8OC(CO)C(O)C(OC9OC(CO)C(O)C(O)C9O)C8O)C7OC7OC(CO)C(O)C(O)C7O)C(O)C6O)C(O)CC5(C)C4CCC3(C)C1C2C (stereo not shown) [CAY-1]
[1]
  lethality to bacteria: not effective
[2]
  lethality to bacteria: not effective
[3]; Aspergillus fumigatus, 0.5 h, germinating, 1% PDB, 2.0 μM
  activity at 2 µM: 96.1%
[3]; Aspergillus fumigatus, 0.5 h, germinating, 1% PDB, 3.0 μM
  activity at 3 µM: 49.9%
[3]; Aspergillus fumigatus, 0.5 h, germinating, 1% PDB, 4.0 μM
  activity at 4 µM: 14.4%
[3]; Aspergillus fumigatus, 0.5 h, germinating, 1% PDB, 5.0 μM
  activity at 5 µM: 6.1%
[3]; Aspergillus fumigatus, 0.5 h, germinating, 1% PDB, 7.5 μM
  activity at 7.5 µM: 2.8%
[3]; Aspergillus fumigatus, 0.5 h, germinating, 1% PDB, 10.0 μM
  activity at 10 µM: 0.2%
[3]; Aspergillus fumigatus, 0.5 h, germinating, RPMI-1640, 0.5 μM
  activity at 0.5 µM: 92.4%
[3]; Aspergillus fumigatus, 0.5 h, germinating, RPMI-1640, 1.0 μM
  activity at 1 µM: 105%
[3]; Aspergillus fumigatus, 0.5 h, germinating, RPMI-1640, 1.5 μM
  activity at 1.5 µM: 117%
[3]; Aspergillus fumigatus, 0.5 h, germinating, RPMI-1640, 2.0 μM
  activity at 2 µM: 118%
[3]; Aspergillus fumigatus, 0.5 h, germinating, RPMI-1640, 2.5 μM
  activity at 2.5 µM: 114%
[3]; Aspergillus fumigatus, 0.5 h, germinating, RPMI-1640, 3.0 μM
  activity at 3 µM: 40.7%
[3]; Aspergillus fumigatus, 0.5 h, germinating, RPMI-1640, 4.0 μM
  activity at 4 µM: 5.1%
[3]; Aspergillus fumigatus, 0.5 h, nongerminated, 1% PDB, 2.0 μM
  activity at 2 µM: 93.9%
[3]; Aspergillus fumigatus, 0.5 h, nongerminated, 1% PDB, 3.0 μM
  activity at 3 µM: 80.4%
[3]; Aspergillus fumigatus, 0.5 h, nongerminated, 1% PDB, 4.0 μM
  activity at 4 µM: 88.5%
[3]; Aspergillus fumigatus, 0.5 h, nongerminated, 1% PDB, 5.0 μM
  activity at 5 µM: 86.7%
[3]; Aspergillus fumigatus, 0.5 h, nongerminated, 1% PDB, 7.5 μM
  activity at 7.5 µM: 96.6%
[3]; Aspergillus fumigatus, 0.5 h, nongerminated, 1% PDB, 10.0 μM
  activity at 10 µM: 101%
[3]; Aspergillus fumigatus, 0.5 h, nongerminated, RPMI-1640, 0.5 μM
  activity at 0.5 µM: 117%
[3]; Aspergillus fumigatus, 0.5 h, nongerminated, RPMI-1640, 1.0 μM
  activity at 1 µM: 132%
[3]; Aspergillus fumigatus, 0.5 h, nongerminated, RPMI-1640, 1.5 μM
  activity at 1.5 µM: 97.4%
[3]; Aspergillus fumigatus, 0.5 h, nongerminated, RPMI-1640, 2.0 μM
  activity at 2 µM: 109%
[3]; Aspergillus fumigatus, 0.5 h, nongerminated, RPMI-1640, 2.5 μM
  activity at 2.5 µM: 96.5%
[3]; Aspergillus fumigatus, 0.5 h, nongerminated, RPMI-1640, 3.0 μM
  activity at 3 µM: 103%
[3]; [4]
  LD95 (concentration killing 95% of conidia): 4 µM
  LD95 (concentration lethal to 95% of conidia): 5 µg/mL
[3]; Aspergillus fumigatus, 0.5 h, read-out: concentration achieving significant lethality
  minimal effective concentration: 3 µM and 3.7 µg/mL
[3]; Aspergillus fumigatus, 0.5 h, read-out: concentration required for statistically significant viability reduction
  minimal effective concentration: 12.4 µg/mL
[3]; Aspergillus fumigatus, 0.5 h, germinating conidia, RPMI-1640, p=0.0002, read-out: concentration required for statistically significant viability reduction
  minimal effective concentration: 10 µM
[3]; germinating, 1% PDB, 2.0 μM
  Mean No. of Colonies: 44.1
[3]; germinating, 1% PDB, 3.0 μM
  Mean No. of Colonies: 22.9
[3]; germinating, 1% PDB, 4.0 μM
  Mean No. of Colonies: 6.6
[3]; germinating, 1% PDB, 5.0 μM
  Mean No. of Colonies: 2.8
[3]; germinating, 1% PDB, 7.5 μM
  Mean No. of Colonies: 1.3
[3]; germinating, 1% PDB, 10.0 μM
  Mean No. of Colonies: 0.1
[3]; germinating, RPMI-1640, 0.5 μM
  Mean No. of Colonies: 10.9
[3]; germinating, RPMI-1640, 1.0 μM
  Mean No. of Colonies: 12.4
[3]; germinating, RPMI-1640, 1.5 μM
  Mean No. of Colonies: 13.8
[3]; germinating, RPMI-1640, 2.0 μM
  Mean No. of Colonies: 13.9
[3]; germinating, RPMI-1640, 2.5 μM
  Mean No. of Colonies: 13.5
[3]; germinating, RPMI-1640, 3.0 μM
  Mean No. of Colonies: 4.8
[3]; germinating, RPMI-1640, 4.0 μM
  Mean No. of Colonies: 0.6
[3]; nongerminated conidia, either test medium
  viability of nongerminated conidia: not affected
[3]; nongerminated, 1% PDB, 2.0 μM
  Mean No. of Colonies: 57.4
[3]; nongerminated, 1% PDB, 3.0 μM
  Mean No. of Colonies: 49.1
[3]; nongerminated, 1% PDB, 4.0 μM
  Mean No. of Colonies: 54.1
[3]; nongerminated, 1% PDB, 5.0 μM
  Mean No. of Colonies: 53.0
[3]; nongerminated, 1% PDB, 7.5 μM
  Mean No. of Colonies: 59.0
[3]; nongerminated, 1% PDB, 10.0 μM
  Mean No. of Colonies: 61.8
[3]; nongerminated, RPMI-1640, 0.5 μM
  Mean No. of Colonies: 27.0
[3]; nongerminated, RPMI-1640, 1.0 μM
  Mean No. of Colonies: 30.6
[3]; nongerminated, RPMI-1640, 1.5 μM
  Mean No. of Colonies: 22.5
